Measurements taken from ChEMBL document CHEMBL4828736, “Discovery of ASTX029, A Clinical Candidate Which Modulates the Phosphorylation and Catalytic Activity of ERK1/2” (J Med Chem, 2021).
One block for each compound: values may come before it.

Legend:
[1] = in vitro; conditions: human, microsomes
[2] = in vitro; conditions: CD1, mouse, microsomes
[3] = molecular target: CYP3A4 (Homo sapiens, UniProt P08684); assay: in vitro; conditions: recombinant enzyme
[4] = in vivo; conditions: BALB/c, mouse, iv, 0.5 mg/kg
[5] = in vivo; conditions: BALB/c, mouse, po, 5 mg/kg
[6] = in vivo; conditions: BALB/c, mouse, po, 5 mg/kg; remark: listed apart in the source
[7] = in vivo; conditions: BALB/c, mouse, iv, 0.5 mg/kg; remark: listed apart in the source
[8] = physchem; conditions: buffer, pH 7.4
[9] = in vivo; conditions: BALB/c, mouse, po, 5 mg/kg; remark: listed apart in the source
[10] = in vivo; conditions: rat, po, 50 mg/kg
[11] = in vivo; conditions: rat, po, 50 mg/kg; remark: listed apart in the source
[12] = in vivo; conditions: Beagle, dog, po, 0.5 mg/kg
[13] = in vivo; conditions: Beagle, dog, iv
[14] = in vivo; conditions: rat, po, 100 mg/kg
[15] = in vivo; conditions: rat, po, 100 mg/kg; remark: listed apart in the source
[16] = in vivo; conditions: rat, po, 1 mg/kg
[17] = in vivo; conditions: Beagle, dog, iv; remark: listed apart in the source
[18] = in vivo; conditions: Beagle, dog, po, 0.5 mg/kg; remark: listed apart in the source
[19] = in vivo; conditions: rat, po, 50 mg/kg; remark: listed apart in the source
[20] = in vivo; conditions: rat, po, 1 mg/kg; remark: listed apart in the source
[21] = in vivo; conditions: rat, po, 100 mg/kg; remark: listed apart in the source
[22] = in vivo; conditions: rat, po, 50 mg/kg; remark: listed apart in the source
[23] = in vivo; conditions: rat, po, 100 mg/kg; remark: listed apart in the source
[24] = in vivo; conditions: rat, po, 100 mg/kg; remark: listed apart in the source
[25] = in vivo; conditions: rat, iv, 0.5 mg/kg
[26] = in vivo; conditions: Beagle, dog, po, 0.5 mg/kg; remark: listed apart in the source
[27] = in vivo; conditions: Beagle, dog, po, 0.5 mg/kg; remark: listed apart in the source
[28] = in vivo; conditions: rat, po, 1 mg/kg; remark: listed apart in the source
[29] = in vivo; conditions: rat, iv, 0.5 mg/kg; remark: listed apart in the source
[30] = in vivo; conditions: rat, po, 1 mg/kg; remark: listed apart in the source
[31] = in vivo; conditions: rat, po, 1 mg/kg; remark: listed apart in the source
[32] = in vivo; conditions: rat, po, 50 mg/kg; remark: listed apart in the source
[33] = in vivo; conditions: Beagle, dog, po, 0.5 mg/kg; remark: listed apart in the source
[34] = system: COLO 205; assay: cells; type: functional, cell-based; conditions: Homo sapiens, COLO 205, 96 h

CYP3A4, sequence (P08684 whole entry): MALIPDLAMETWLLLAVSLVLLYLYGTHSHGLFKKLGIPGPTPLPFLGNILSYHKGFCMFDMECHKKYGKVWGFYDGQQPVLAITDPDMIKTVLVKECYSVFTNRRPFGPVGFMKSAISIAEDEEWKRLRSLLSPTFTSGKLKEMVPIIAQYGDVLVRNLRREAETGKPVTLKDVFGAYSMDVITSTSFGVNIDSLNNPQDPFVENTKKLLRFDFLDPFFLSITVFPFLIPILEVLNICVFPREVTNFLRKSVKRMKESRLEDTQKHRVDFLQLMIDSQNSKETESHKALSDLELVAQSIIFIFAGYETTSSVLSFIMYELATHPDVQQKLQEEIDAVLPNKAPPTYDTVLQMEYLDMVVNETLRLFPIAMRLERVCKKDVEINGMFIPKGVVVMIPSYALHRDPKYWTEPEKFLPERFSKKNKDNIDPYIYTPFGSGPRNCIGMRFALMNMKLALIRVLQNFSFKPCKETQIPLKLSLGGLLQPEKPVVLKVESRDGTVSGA

half-life at 40 min, 1 µM [1]: 23 min | half-life at 40 min, 1 µM [2]: 49 min | half-life at 40 min, 1 µM [3]: < 5 min
Structure (SMILES): C[C@H](C(=O)N[C@H](CO)c1cc(F)cc(F)c1)N1Cc2ccc(-c3nc(NC4CCOCC4)ncc3Cl)cc2C1=O

clearance at 24 h [4]: 8.7 mL/min/kg | half-life at 24 h [5]: 60 min | bioavailability at 24 h [6]: 15% | Vd at 24 h [7]: 0.76 L/kg | chromatographic logD [8]: 3.3 | half-life at 40 min, 1 µM [1]: 36 min | AUC at 24 h [9]: 1300 ng·h/mL | half-life at 40 min, 1 µM [2]: 120 min | half-life at 40 min, 1 µM [3]: 17 min
Structure (SMILES): C[C@H](C(=O)N[C@H](CO)c1cccc(N2CCN(C)CC2)n1)N1Cc2ccc(-c3nc(NC4CCOCC4)ncc3Cl)cc2C1=O

clearance at 24 h [4]: 35 mL/min/kg | half-life at 24 h [5]: 53.4 min | bioavailability at 24 h [6]: 40% | Vd at 24 h [7]: 0.91 L/kg | chromatographic logD [8]: 3.6 | half-life at 40 min, 1 µM [1]: 10 min | AUC at 24 h [9]: 960 ng·h/mL | half-life at 40 min, 1 µM [2]: 20 min
Structure (SMILES): O=C(CN1Cc2ccc(-c3nc(NC4CCOCC4)ncc3Cl)cc2C1=O)N[C@@]1(CO)CCc2ccccc21

Second part, the compound before the results:

Structure (SMILES): COc1cc(F)cc([C@@H](CO)NC(=O)[C@@H](C)N2Cc3ccc(-c4nc(N[C@@H](C)CO)ncc4Cl)cc3C2=O)c1
clearance at 24 h [4]: 23 mL/min/kg | half-life at 24 h [5]: 108 min | bioavailability at 24 h [6]: 9% | Vd at 24 h [7]: 1.4 L/kg | chromatographic logD [8]: 3.1 | half-life at 40 min, 1 µM [1]: 28 min | AUC at 24 h [9]: 310 ng·h/mL | half-life at 40 min, 1 µM [3]: 29 min

Structure (SMILES): O=C(CN1Cc2ccc(-c3nc(NC4CCOCC4)ncc3Cl)cc2C1=O)N1CCCc2ccccc2C1
half-life at 40 min, 1 µM [1]: < 5 min | half-life at 40 min, 1 µM [2]: < 5 min

Structure (SMILES): C[C@H](C(=O)N[C@H](CO)c1cc(F)cc(OCCN(C)C)c1)N1Cc2ccc(-c3nc(NC4CCOCC4)ncc3Cl)cc2C1=O
half-life at 40 min, 1 µM [1]: 60 min | half-life at 40 min, 1 µM [3]: 10 min

Structure (SMILES): C[C@H](C(=O)N[C@H](CO)c1cc(F)cc(N2CCN(C)CC2)c1)N1Cc2ccc(-c3nc(NC4CCOCC4)ncc3Cl)cc2C1=O
clearance at 24 h [4]: 124 mL/min/kg | Vd at 24 h [7]: 3.8 L/kg | chromatographic logD [8]: 3.6 | half-life at 40 min, 1 µM [1]: 51 min | AUC at 24 h [9]: 18 ng·h/mL

Structure (SMILES): COc1cc(F)cc([C@@H](CO)NC(=O)[C@@H](C)N2Cc3ccc(-c4nc(NC5CCOCC5)ncc4Cl)cc3C2=O)c1 [BEROTERKIB ANHYDROUS]
Cmax at 24 h [10]: 2740 ng/mL | clearance at 24 h [4]: 22 mL/min/kg | half-life at 24 h [5]: 174 min | Tmax at 24 h [11]: 120 min | Cmax at 24 h [12]: 3660 ng/mL | clearance at 24 h [13]: 0.56 mL/min/kg | bioavailability at 24 h [14]: > 100% | bioavailability at 24 h [6]: 42% | Vd at 24 h [7]: 0.68 L/kg | half-life at 24 h [15]: 150 min | chromatographic logD [8]: 3.8 | Cmax at 24 h [16]: 25.8 ng/mL | Vd at 24 h [17]: 0.071 L/kg | Tmax at 24 h [18]: 60 min | half-life at 40 min, 1 µM [1]: 33 min | bioavailability at 24 h [19]: 35% | AUC at 24 h [20]: 57.9 ng·h/mL | AUC at 24 h [21]: 118000 ng·h/mL | AUC at 24 h [9]: 1600 ng·h/mL | AUC at 24 h [22]: 17500 ng·h/mL | Cmax at 24 h [23]: 15700 ng/mL | Tmax at 24 h [24]: 120 min | clearance at 24 h [25]: 18 mL/min/kg | bioavailability at 24 h [26]: 91% | half-life at 24 h [27]: 66 min | Tmax at 24 h [28]: 30 min | Vd at 24 h [29]: 0.77 L/kg | half-life at 24 h [30]: 90 min | half-life at 40 min, 1 µM [2]: 46 min | bioavailability at 24 h [31]: 6.1% | half-life at 24 h [32]: 168 min | AUC at 24 h [33]: 12300 ng·h/mL

Structure (SMILES): COc1cc(F)cc([C@@H](CO)NC(=O)[C@@H](C)N2Cc3ncc(-c4nc(NC5CCOCC5)ncc4Cl)cc3C2=O)c1
clearance at 24 h [4]: 37 mL/min/kg | half-life at 24 h [5]: 114 min | bioavailability at 24 h [6]: 23% | Vd at 24 h [7]: 1.9 L/kg | chromatographic logD [8]: 3.2 | half-life at 40 min, 1 µM [1]: 36 min | AUC at 24 h [9]: 500 ng·h/mL | IC50 [34]: 8 nM | half-life at 40 min, 1 µM [3]: 23 min

Structure (SMILES): COc1cc(F)cc([C@@H](CO)NC(=O)[C@@H](C)N2Cc3ccc(-c4ccnc(NC5CCOCC5)n4)cc3C2=O)c1
clearance at 24 h [4]: 17 mL/min/kg | half-life at 24 h [5]: 72 min | bioavailability at 24 h [6]: 7% | Vd at 24 h [7]: 1 L/kg | chromatographic logD [8]: 3.2 | half-life at 40 min, 1 µM [1]: 62 min | AUC at 24 h [9]: 320 ng·h/mL | IC50 [34]: 15 nM | half-life at 40 min, 1 µM [3]: 49 min

Structure (SMILES): O=C(CN1Cc2ccc(-c3nc(NC4CCOCC4)ncc3Cl)cc2C1=O)NCc1ccccc1
half-life at 40 min, 1 µM [1]: 32 min | half-life at 40 min, 1 µM [2]: 65 min
